Results published in patent publication US8580842B2, “Heteroaryl-substituted 1,3-dihydroindol-2-one derivatives and medicaments containing them” (Abbott GmbH & Co. KG, priority 2003, dated 2013).
Counter-ions that a name gives are not always drawn.

molecular target: T1, human V1b receptors (Homo sapiens, UniProt P47901); test: Vasopressin V1b receptor binding assay; settings: membranes from CHO-K1 cells expressing human V1b receptors, displacement of 1.5 nM 3H-AVP; read-out: Binding affinity for the vasopressin V1b receptor
T1 construct: expressed in transfected cells; host or cells: CHO-K1 (membrane preparation V1b-3H2)
T1 sequence (P47901 1-424): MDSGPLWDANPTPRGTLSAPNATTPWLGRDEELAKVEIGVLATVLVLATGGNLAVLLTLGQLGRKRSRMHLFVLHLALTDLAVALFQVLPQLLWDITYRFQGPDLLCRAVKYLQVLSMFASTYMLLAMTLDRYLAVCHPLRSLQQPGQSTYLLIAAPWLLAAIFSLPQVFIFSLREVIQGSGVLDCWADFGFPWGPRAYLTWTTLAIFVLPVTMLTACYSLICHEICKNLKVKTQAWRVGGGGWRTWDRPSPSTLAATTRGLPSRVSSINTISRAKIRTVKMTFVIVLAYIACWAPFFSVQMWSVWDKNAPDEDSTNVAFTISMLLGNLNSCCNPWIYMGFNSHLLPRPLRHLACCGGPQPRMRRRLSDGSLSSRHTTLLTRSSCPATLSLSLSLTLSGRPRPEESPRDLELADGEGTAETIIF
Procedure: Vasopressin V1b Receptor Binding Assay
The binding of the compounds of this invention to the vasopressin V1b receptor was determined with the following assay:
Compounds were dissolved in a concentration of 10^−2 M or 10^−3 M in DMSO. Further dilutions were performed with water.
The procedure for the binding assay was based on the method of Tahara et al. (Tahara A et al., Brit. J. Pharmacol. 125, 1463-1470 (1998)). Assays (0.250 ml) consisted of membranes (58 μg protein) from CHO-K1 cells permanently expressing human V1b receptors (preparation V1b-3H2, containing protease inhibitors, Roche complete Mini #1836170), 1.5 nM ^3H-AVP (8-Arg-vasopressin, NET 800) in incubation buffer (total binding) and different concentrations of test compound (displacement). Non-specific binding was defined with 10^−6 M AVP. Assays were performed in triplicate.
Incubation buffer: 50 mM Tris, 10 mM MgCl2, 0.1% BSA adjusted to pH 7.4 with HCl.
After incubation, 60 min at room temperature, bound and free radioligand was separated by filtration under vacuum through Whatman GF/B glass fibre mats using a Skatron cell harvester 7000.
Liquid scintillation counting was performed in beta-counters, Tricarb model 2000 or 2200CA (Packard). Dpm were calculated by a programme with standardisation using a standard quench series.
Evaluation of binding parameters was performed by non-linear regression analysis with SAS. The strategy of this program is similar to the program LIGAND described by Munson and Rodbard (Munson PJ and Rodbard D, Analytical Biochem 107, 220-239 (1980)).

Row | Compound | Ki
1 | CCOc1ncccc1C1(N2C[C@H](O)C[C@H]2C(=O)N(C)C)C(=O)N(S(=O)(=O)c2ccc(OC)cc2OC)c2ccc(Cl)cc21 (single isomer, unassigned) [Example 239] | < 50 nM
2 | COc1ncccc1C1(OC(=O)N2CCN(C3CCN(C)CC3)CC2)C(=O)N(S(=O)(=O)c2csc3ccccc23)c2ccc(Cl)cc21 (stereo not drawn) [Example 170, 4-(1-Methyl-piperidin-4-yl)-piperazine-1-carboxylic acid 1-(benzo[b]thiophene-3-sulfonyl)-5-chloro-3-(2-methoxy-pyridin-3-yl)-2-oxo-2,3-dihydro-1H-indol-3-yl ester diacetate] | 50 to 500 nM
3 | COc1ccc(S(=O)(=O)N2C(=O)C(c3cccnc3OC)(N3CC[C@H]3C(=O)N(C)C)c3cc(Cl)ccc32)c(OC)c1 (single isomer, unassigned) [Example 255] | 50 to 500 nM
4 | COc1ncc(C2(N3C[C@H](O)C[C@H]3C(=O)N(C)C)C(=O)N(S(=O)(=O)c3ccc(C)cn3)c3ccc(Cl)cc32)c(OC)n1 (single isomer, unassigned) [Example 282] | < 50 nM
5 | COc1ccccc1C1(N2C[C@H](O)C[C@H]2C(=O)N(C)C)C(=O)N(S(=O)(=O)c2ccc(Cl)cn2)c2ccc(Cl)cc21 (single isomer, unassigned) [Example 52] | < 50 nM
6 | Cc1ccccc1C1(OC(=O)N2CCN(C3CCN(C)CC3)CC2)C(=O)N(S(=O)(=O)c2ccccn2)c2ccc(C#N)cc21 (stereo not drawn) [Example 134, 4-(1-Methyl-piperidin-4-yl)-piperazine-1-carboxylic acid 5-cyano-2-oxo-1-(pyridine-2-sulfonyl)-3-o-tolyl-2,3-dihydro-1H-indol-3-yl ester dihydrochloride] | < 50 nM

Now from value to compound:

Row | Ki | Compound
7 | < 50 nM | COC(=O)[C@@H]1CCCN1C1(c2cccnc2OC)C(=O)N(S(=O)(=O)c2ccc(OC)cc2OC)c2ccc(Cl)cc21 (mixture of isomers) [Example 248, (S)-1-[5-Chloro-1-(2,4-dimethoxy-benzenesulfonyl)-3-(2-methoxy-pyridin-3-yl)-2-oxo-2,3-dihydro-1H-indol-3-yl]-pyrrolidine-2-carboxylic acid methyl ester]
8 | < 50 nM | COc1ccc(S(=O)(=O)N2C(=O)C(OC(=O)N3CCN(C4CCN(C)CC4)CC3)(c3cccnc3OC)c3cc(Cl)ccc32)c(OC)c1 (stereo not drawn) [Example 105, 4-(1-Methyl-piperidin-4-yl)-piperazine-1-carboxylic acid 5-chloro-1-(2,4-dimethoxy-benzenesulfonyl)-3-(2-methoxy-pyridin-3-yl)-2-oxo-2,3-dihydro-1H-indol-3-yl ester]
9 | < 50 nM | COc1ccc2c(c1)C(OC(=O)N1CCN(C3CCN(C)CC3)CC1)(c1ccccc1OC)C(=O)N2S(=O)(=O)c1cccs1 (stereo not drawn) [Example 126, 4-(1-Methyl-piperidin-4-yl)-piperazine-1-carboxylic acid 5-methoxy-3-(2-methoxy-phenyl)-2-oxo-1-(thiophene-2-sulfonyl)-2,3-dihydro-1H-indol-3-yl ester dihydrochloride]
10 | < 50 nM | COc1ccc(S(=O)(=O)N2C(=O)C(OC(=O)N3CCN(C4CCN(C)CC4)CC3)(c3ccccn3)c3cc(Cl)ccc32)c(OC)c1 (stereo not drawn) [Example 104, 4-(1-Methyl-piperidin-4-yl)-piperazine-1-carboxylic acid 5-chloro-1-(2,4-dimethoxy-benzenesulfonyl)-2-oxo-3-pyridin-2-yl-2,3-dihydro-1H-indol-3-yl ester trishydrochloride]
11 | < 50 nM | COc1ncccc1C1(OC(=O)N2CCN(C3CCN(C)CC3)CC2)C(=O)N(S(=O)(=O)c2ccc(C)s2)c2ccc(Cl)cc21 (stereo not drawn) [Example 168, 4-(1-Methyl-piperidin-4-yl)-piperazine-1-carboxylic acid 5-chloro-3-(2-methoxy-pyridin-3-yl)-1-(5-methyl-thiophene-2-sulfonyl)-2-oxo-2,3-dihydro-1H-indol-3-yl ester diacetate]
12 | < 50 nM | COc1ccc(S(=O)(=O)N2C(=O)C(c3cnccc3OC)(N3C[C@H](O)C[C@H]3C(=O)N(C)C)c3cc(Cl)ccc32)c(OC)c1 (single isomer, unassigned) [Example 10]
